Series [1] in a line: Solubility of BETi1 in solutions of hydroxypropyl-β-cyclodextrin in saline (HPLC). The conditions noted are these: for solubility: aqueous with cosolvent or surfactant or cyclodextrin, thermodynamic from solid, 25° C., HPLC, read-out: Approximate solubility. The format is physicochemical. As to the method:
Saline is prepared by dissolving 0.9% of NaCl in water. 10% w/w or 20% w/w of hydroxypropyl-β-cyclodextrin (2HP-β-CD) is added to saline, sonicated for 1 minute, and mixed using magnetic stirrer until complete dissolution of 2HP-β-CD and a clear solution is obtained. Sufficient BETi1 is added to each 2HP-β-CD solution such that not all BETi1 is completely dissolved. The mixture is stirred with a magnetic stirrer at ambient conditions overnight (for at least 16 hours). The saturated samples, still containing solid phase, are filtered through a 0.45 μm filter and the filtrate is analyzed by HPLC.

Series [2] relates to CXCL10, IL17α, IL22, IL36γ, CCL20, SerpinB4 gene expression in Th17 stimulated human skin. Kind of series: Th17 stimulated human skin explants, RT-qPCR of biomarkers. It counts as cell-based. The settings on record: for inhibition at 10 µM: Homo sapiens, calculated to Th17 stimulated control, three skin donors. The text has this: Human skin biopsy tissue was stimulated to induce a Th17 immuno-phenotype using a method derived from Feghali-Bostwick et al. Induction of a Th17 phenotype in human skin—a mimic of dermal inflammatory diseases, Methods and Protocols, 2, 45 (2019). The pharmacodynamic assay described therein involves a similar paradigm to elicit a Th2 response and is used to evaluate the therapeutic potential of the active compounds (e.g., BETi1; and
Freshly excised healthy human skin tissue from abdominoplasties is defatted, cleaned and sectioned into 7 mm biopsies. The biopsies are placed in Transwell® inserts with the epidermis apical and exposed to air and the dermis submerged in media in the basal chamber. The biopsies are pre-treated overnight at 37° C., 5% CO2 with different compounds and controls added to the media in the basal chamber.
The next day, contents of the basal chamber is replaced with fresh media containing the test compound (listed below) and a stimulation cocktail for either Th2 inflammation (proprietary of service provider cocktail) or Th17 inflammation (mix of antibodies against CD3, CD28, IL-4, IFNγ and recombinant IL-1β, IL-6, IL-21, TGF-β). The biopsies are incubated at 37° C., 5% CO2 for a further 24 hrs.
A list of all the treatments is provided below: • 1. Untreated control (for both stimulations) • 2. Th2 stimulated control • 3. Th17 stimulated control • 4. Th2+BETia at 0.01, 0.04, 0.16, 0.63, 2.50, and 10 μM • 5. Th2+BETi1 at 0.01, 0.04, 0.16, 0.63, 2.50, and 10 μM • 6. Th2+Ruxolitinib at 0.01, 0.04, 0.16, 0.63, 2.50, and 10 μM • 7. Th2+betamethasone valerate 210 μM (equivalent to 0.01%) • 8. Th17+BETia at 10 μM • 9. Th17+BETi1 at 10 μM • 10. Th17+Ruxolitinib at 10 μM • 11. Th17+betamethasone valerate 210 μM (equivalent to 0.01%)
After harvesting, the biopsies are cut in half, and one half is homogenized and used for RNA extraction by standard methods and inflammatory pathways is assessed by RT-qPCR. The ability of BETi1 or BETia to inhibit the activity of up to six biomarkers per stimulation is reported as percent activity calculated to stimulated control and fold change in gene expression calculated to untreated control with respect to Th2 (IL4, IL13, IL31, CCL17, CCL26, CCL2) and Th17 (CXCL10, IL17α, IL22, IL36γ, CCL20, SerpinB4). Statistical analysis is performed on data sets from all 3 donors combined and compares the percent inhibition of each biomarker by each treatment calculated to its respective vehicle.
qPCR values were calculated using the relative quantification approach outlined by Livak, et al (2001) (Section 9, Reference 2). The Ct values (threshold cycle) defined as the fractional cycle number at which the amount of amplified target reaches a fixed threshold, were normalised to the Ct value of an internal biomarker or ‘housekeeping gene’ (GAPDH). The higher limit of detection was set at a Ct value of 40, and any target having not reached Ct by 40 cycles was set to this value. The delta Ct values (dt(Ct)) refers to the Ct of the gene of interest minus the Ct of the internal biomarker. The ddt(Ct) is the dt(Ct) value of the gene minus the average dt(Ct) value of the untreated samples. The ddt(Ct) is converted to power by the equation; =power(2,dt(Ct)). Fold change was calculated as ratio of the power of the gene of interest divided by the average power of the untreated samples. This normalizes the untreated samplers to a value of 1. For the comparison of multiple skin donors, the stimulated samples were normalized to 100% maximum activity (such to normalize variability between different skin donors). Percent activity was calculated as the percent increase or decrease in stimulation compared to the stimulated samples set at 100% maximum activity. Percent change was calculated as: Inhibition=(100−(avg % activity/stimulated)*100). Statistical analysis was performed using One-way ANOVA with Dunnett's Multiple Comparisons (non parametric). […]

Values after ≈ are worked out from the molar mass of the structure shown. Where two headings read alike, the source gives them in different places.

As for `Cn1cc(-c2cccc(O)c2Oc2ccccc2)c2cc[nH]c2c1=O` [BETi1], the “amount of BETi1 fully dissolved” value in series [1] (10% HP-b-CD in saline, room temperature) is “below 4.3 mg/mL”. Besides, the solubility (usually how much of the substance goes into solution per volume) was determined as 4340 µg/mL (≈ 13.1 mM) in series [1] (10% w/w hydroxypropyl-β-cyclodextrin in saline, 2HP-β-CD - Saline (10%:90%)) and 8990 µg/mL (≈ 27 mM) in series [1] (20% w/w hydroxypropyl-β-cyclodextrin in saline, 2HP-β-CD - Saline (20%:80%)). Besides, the inhibition (in general, how much of the control response was suppressed) at 10 µM is 95% in series [2] (read-out: % inhibition CXCL10), 99.5% in series [2] (read-out: % inhibition IL17α) and 95% in series [2] (read-out: % inhibition IL36γ). Besides, in series [2] (Th17-stimulated human skin tissue), the “inhibition of IL-17, IL-36 and CXCL10 release relative to vehicle control” value is listed as “greater than 95%”.

The values above are taken from patent US20250339409A1, “USES OF PAN BET INHIBITORS” (VYNE THERAPEUTICS INC., priority 2021, published 2025).
